Consider seven molecules from US20240381872A1, “SUBSTITUTED 2,3-DIHYDRO[1,3]THIAZOLO[4,5-B]PYRIDINES, SALTS THEREOF AND THEIR USE AS HERBICIDALLY ACTIVE SUBSTANCES” (BAYER AKTIENGESELLSCHAFT, priority 2021, published 2024).

What all share (format): in vivo
Assay [1] has as its system Amaranthus retroflexus (AMARE). As to the kind of experiment: Herbicidal pre-emergence action, section C (Table C11). The conditions noted are these: visual grading after ca. 3 weeks; for pest or weed control at 320 g/ha / pest or weed control at 80 g/ha: Amaranthus retroflexus, pre-emergence, 504 h, read-out: pre-emergence activity against AMARE in %; for pest or weed control at 320 g/ha: application rate 320 g/ha; for pest or weed control at 80 g/ha / pre-emergence activity against AMARE in %: application rate 80 g/ha. The method, boiled down:
(§1)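 Greenhouse pre-emergence test on sandy loam: spray of formulated compound onto covering soil at 600 l water/ha, then percent damage judged by eye after ca. 3 weeks relative to untreated pots.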

Assay [2] relates to Veronica persica (VERPE). As to the kind of experiment: Herbicidal post-emergence action, section E (Table E9). Conditions: visual assessment ca. 3 weeks after spraying; for pest or weed control at 320 g/ha / post-emergence activity against VERPE in %: application rate 320 g/ha. The method, boiled down: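 Scoring was visual, in percent relative to untreated plants, about three weeks after treatment. Test plants had been sprayed on their green parts at the single-leaf stage with an aqueous formulation including 0.5% additive, applied at 600 l water/ha.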

In assay [3] the test system is Amaranthus retroflexus (AMARE). Description: Herbicidal post-emergence action, section B (Table B11). The conditions noted are these: visual rating about 3 weeks after treatment vs untreated controls; for pest or weed control at 320 g/ha: Amaranthus retroflexus, post-emergence, 504 h, read-out: post-emergence activity against AMARE in %. In short, it runs like this: (§2)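 Post-emergence greenhouse test. One-leaf stage; WP or EC plus 0.5% additive; 600 liters per hectare water volume; visual % rating at ~3 weeks relative to untreated plants.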

For assay [4], the system named is Veronica persica (VERPE). Description: Herbicidal pre-emergence action, section A (Table A10). The conditions noted are these: for pest or weed control at 1280 g/ha: Veronica persica, 504 h, read-out: pre-emergence activity against VERPE in %. The method, boiled down:
(§3)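 Percent herbicidal effect, visually graded about 3 weeks post-treatment against untreated pots, reflects pre-emergence application of WP or EC formulations to the soil surface over seeds sown in sandy loam, using 0.5% additive and 600 l of water per hectare.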

Assay [5] has as its system Lolium rigidum (LOLRI). Description: Herbicidal pre-emergence action, section A (Table A5). Conditions: visual grading after ca. 3 weeks vs untreated controls; for pest or weed control at 320 g/ha: Lolium rigidum, pre-emergence, 504 h, read-out: pre-emergence activity against LOLRI in %. In short, it runs like this: as §3
Assay [6] concerns Lolium rigidum (LOLRI). Description: Herbicidal post-emergence action, section B (Table B5). Conditions: application rate 1280 g/ha, visual rating about 3 weeks after treatment vs untreated controls; for pest or weed control at 1280 g/ha: Lolium rigidum, post-emergence, 504 h, read-out: post-emergence activity against LOLRI in %. The method, boiled down: as §2
The subject of assay [7] is Matricaria inodora (MATIN). Description: Herbicidal pre-emergence action, section C (Table C6). The conditions noted are these: application rate 320 g/ha, visual grading after ca. 3 weeks; for pest or weed control at 320 g/ha: Tripleurospermum inodorum, pre-emergence, 504 h, read-out: pre-emergence activity against MATIN in %. The text has this: Seeds of mono- and dicotyledonous weed plants and crop plants were sown, in plastic or organic planting pots, in sandy loam and covered with soil. The compounds according to the invention, formulated in the form of wettable powders (WP) or as emulsifiable concentrates (EC), were applied to the surface of the covering soil as aqueous suspension or emulsion, with the addition of 0.5% of an additive, at an application rate of 600 l of water/ha (converted). Following treatment, the pots were placed in a greenhouse and kept under optimum growth conditions for the test plants. The visual grading of the damage to the test plants was carried out after ca. 3 weeks in comparison to untreated controls (herbicidal effect in percent (%): 100% effect=plants have died off, 0% effect=as control plants).

Assay [8] relates to Echinochloa crus-galli (ECHCG). Description: Herbicidal post-emergence action, section B (Table B3). The conditions noted are these: rated visually after about 3 weeks; for pest or weed control at 1280 g/ha: Echinochloa crus-galli, 504 h, read-out: post-emergence activity against ECHCG in %. The method, boiled down: as §2
The subject of assay [9] is Polygonum convolvulus (POLCO). As to the kind of experiment: Herbicidal pre-emergence action, section C (Table C7). The conditions noted are these: visual grading after ca. 3 weeks; for pest or weed control at 320 g/ha / pre-emergence activity against POLCO in %: application rate 320 g/ha. The method, boiled down: as §1
For assay [10], the system named is Alopecurus myosuroides (ALOMY). As to the kind of experiment: Herbicidal pre-emergence action, section C (Table C2). The conditions noted are these: visual grading after ca. 3 weeks vs untreated controls. In short, it runs like this:
as §1

For the next assay, the system named is Glycine max (GLXMA). Description: Post-emergence effects on crop plants, section F (Table F4). Conditions: for post-emergence activity against GLXMA in %: crop plant damage. In short, it runs like this: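 After sowing in sandy loam and 2–3 weeks' greenhouse growth, single-leaf plants received foliar sprays (WP or EC, 0.5% additive, 600 l/ha water, ≤320 g/ha). Around 3 weeks on, herbicidal effect was estimated by eye, 0% meaning like controls and 100% meaning plants died.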

The mark [11] stands for this setting: Veronica persica, 504 h, read-out: post-emergence activity against VERPE in %.
The mark [12] stands for this setting: Fallopia convolvulus, pre-emergence, 504 h, read-out: pre-emergence activity against POLCO in %.
The mark [13] stands for this setting: Alopecurus myosuroides, pre-emergence, 504 h, application rate 320 g/ha, read-out: pre-emergence activity against ALOMY in %.

SMILES strings stand for the structures.

As to `CCOCCS(=O)(=O)N1C[S+]([O-])c2cc(C)c(-c3ccccc3F)nc21` (centres unmarked) [Example I-127], the pest or weed control at 320 g/ha was 90% in [1]; 90% with Veronica persica (VERPE) [2] (setting [11]); 90% in assay [3] (application rate 320 g/ha); 100% in the assay with Lolium rigidum (LOLRI) [5] (application rate 320 g/ha); 90% in [7]; 90% in assay [9] (setting [12]). For the same molecule, the pest or weed control at 1280 g/ha (in the assay with Veronica persica (VERPE) [4] (application rate 1280 g/ha); in the assay on Lolium rigidum (LOLRI) [6]; in assay [8] (application rate 1280 g/ha)) was 90% throughout.
In the case of `Cc1cc2c(nc1-c1cccc(F)c1F)NCS2` [Example I-029, 5-(2,3-difluorophenyl)-6-methyl-2,3-dihydro[1,3]thiazolo[4,5-b]pyridine], the pest or weed control at 80 g/ha turned out to be 80% in [1] and 100% in assay [10] (Alopecurus myosuroides, pre-emergence, 504 h, application rate 80 g/ha, read-out: pre-emergence activity against ALOMY in %). For the same molecule, the pest or weed control at 320 g/ha in assay [3] (application rate 320 g/ha) was found to be 90%; in the assay on Lolium rigidum (LOLRI) [5] (application rate 320 g/ha), 100%; in assay [7], 80%; in assay [9] (setting [12]) it was 80%. In addition, the pest or weed control at 1280 g/ha (with Veronica persica (VERPE) [4] (application rate 1280 g/ha); with Lolium rigidum (LOLRI) [6]; in assay [8] (application rate 1280 g/ha)) was 90% each time.
Regarding `Fc1ccccc1-c1nc2c(cc1Br)SCN2` [Example I-001, 6-bromo-5-(2-fluorophenyl)-2,3-dihydro[1,3]thiazolo[4,5-b]pyridine], the pest or weed control at 320 g/ha worked out at 90% in assay [1], 100% in assay [10] (setting [13]), 90% in [7] and 80% in assay [9] (setting [12]). Also, the pest or weed control at 80 g/ha in the assay on Veronica persica (VERPE) [2] (Veronica persica, 504 h, application rate 80 g/ha, read-out: post-emergence activity against VERPE in %) came to 80%. Also, in the assay on Glycine max (GLXMA) (Glycine max, 504 h, application rate 80 g/ha, read-out: post-emergence activity against GLXMA in %), the percent crop plant damage at 80 g/ha is 20%.
Take `CC(C)C(=O)N1C[S+]([O-])c2cc(Br)c(-c3ccccc3)nc21` (centres unmarked) [Example I-067]: the pest or weed control at 80 g/ha in assay [1] is 80%; in assay [9] (Fallopia convolvulus, pre-emergence, 504 h, application rate 80 g/ha, read-out: pre-emergence activity against POLCO in %), 90%. The pest or weed control at 320 g/ha with Veronica persica (VERPE) [2] (setting [11]) is 90%; in assay [10] (setting [13]), 90%; in [7], 80%. In addition, the percent crop plant damage at 320 g/ha in the assay on Glycine max (GLXMA) (Glycine max, 504 h, application rate 320 g/ha, read-out: post-emergence activity against GLXMA in %) turned out to be 10%.
Consider `CC1(C(=O)N2CSc3cc(Br)c(-c4ccccc4)nc32)CC(Cl)=NO1` (centres unmarked) [Example I-139], for which the “pre-emergence activity against AMARE in %” value in assay [1] was 90%. Further, the “post-emergence activity against VERPE in %” value with Veronica persica (VERPE) [2] is 80%. For the same molecule, in assay [3] (application rate 320 g/ha), the “post-emergence activity against AMARE in %” value was determined as 90%. Also, the “pre-emergence activity against VERPE in %” value with Veronica persica (VERPE) [4] (application rate 1280 g/ha) was found to be 90%. Besides, in the assay with Lolium rigidum (LOLRI) [5] (application rate 1280 g/ha), the “pre-emergence activity against LOLRI in %” value came out at 100%. Further, the “pre-emergence activity against ALOMY in %” value in assay [10] (application rate 320 g/ha) came out at 80%. In addition, the “post-emergence activity against GLXMA in %” value in the assay with Glycine max (GLXMA) (application rate 80 g/ha) worked out at 20%. The “pre-emergence activity against MATIN in %” value in [7] amounted to 80%. Besides, in assay [8] (application rate 1280 g/ha), the “post-emergence activity against ECHCG in %” value was 90%. Moreover, the “pre-emergence activity against POLCO in %” value in assay [9] worked out at 80%.
`Cc1ccccc1-c1nc2c(cc1C)SCN2C(=O)C1(C)CC(Cl)=NO1` (centres unmarked) [Example I-137]: in [1], the “pre-emergence activity against AMARE in %” value was determined as 90%. Also, in the assay on Veronica persica (VERPE) [2], the “post-emergence activity against VERPE in %” value is listed as 80%. In [3] (application rate 320 g/ha), the “post-emergence activity against AMARE in %” value came to 90%. The “pre-emergence activity against VERPE in %” value in the assay on Veronica persica (VERPE) [4] (application rate 320 g/ha) is listed as 90%. Further, the “pre-emergence activity against LOLRI in %” value in the assay on Lolium rigidum (LOLRI) [5] (application rate 1280 g/ha) was 100%. Besides, the “pre-emergence activity against ALOMY in %” value in assay [10] (application rate 80 g/ha) was found to be 80%. Further, in assay [7], the “pre-emergence activity against MATIN in %” value is given as 90%. Further, the “post-emergence activity against ECHCG in %” value in assay [8] (application rate 320 g/ha) was 90%. In addition, the “pre-emergence activity against POLCO in %” value in assay [9] amounted to 80%.
On to `COC(=O)CCC(=O)N1CSc2cc(Cl)c(-c3ccccc3F)nc21` [Example I-003], for which the “post-emergence activity against AMARE in %” value in assay [3] (application rate 1280 g/ha) was determined as 90%. In the assay with Veronica persica (VERPE) [4] (application rate 1280 g/ha), the “pre-emergence activity against VERPE in %” value is 90%. Further, in the assay on Lolium rigidum (LOLRI) [5] (application rate 320 g/ha), the “pre-emergence activity against LOLRI in %” value was determined as 100%. Moreover, the “post-emergence activity against LOLRI in %” value in the assay with Lolium rigidum (LOLRI) [6] came to 90%. Moreover, the “pre-emergence activity against ALOMY in %” value in assay [10] (application rate 320 g/ha) amounted to 80%. Moreover, in the assay with Glycine max (GLXMA) (application rate 80 g/ha), the “post-emergence activity against GLXMA in %” value turned out to be 0%. Further, the “pre-emergence activity against MATIN in %” value in assay [7] is recorded as 80%.
